Measurements published in patent US10954222B2, “Benzothiophene compound, alternative autophagy-inducing agent and anticancer agent including the compound as active ingredient, and method for screening for compound having anticancer activity” (National University Corporation Tokyo Medical and Dental …, priority 2012, dated 2021).
Read-outs that look alike come from different tables or passages of the source.

Tests used:
[1] = tested on: 53T implanted in wild-type C57/B6J mice; assay: Survival rate of cancer-bearing mice; assay type: in vivo, mouse; conditions: 10 μM every other day 5 times; compared with etoposide at 10 μM, FIGS. 13 to 15
[2] = tested on: MEFs immortalized with SV40T antigen; assay: cells; conditions: Mus musculus, 24 h, read-out: induced cell death of the MEFs immortalized with SV40T antigen
[3] = tested on: fibroblasts (cancer cells) immortalized with SV40; assay: Activity to induce cell death specific to cancer cells: cancer cells (CTB survival rate); assay type: cell-based; conditions: 20 μM, FIGS. 7 and 8
[4] = tested on: p53-deficient cancer cells (53T); assay: Alternative autophagy-inducing activity in tumor cell line (Lamp2 aggregation, fluorescence and electron microscope); assay type: cell-based, mouse; conditions: 20 μM, six hours, FIGS. 3 to 6
Protocol: In the same manner as in the above-described <Evaluation of Alternative Autophagy-Inducing Activity> using the Lamp1-GFP/ATG5-KO MEFs, each of the compounds #09 and #13 was added at a final concentration of 20 μM to a culture liquid of the tumor cell line (also referred to as “53T”) established from the tumor developed spontaneously in the p53 deficient C57/B6J mouse. […] Note that, in this evaluation, Lamp2 was used instead of Lamp1. FIGS. 3 to 6 show the obtained results.

[5] = tested on: primary cultured fibroblasts (normal cells); assay: Activity to induce cell death specific to cancer cells: normal cells (CTB survival rate); assay type: cell-based; conditions: 20 μM, FIGS. 7 and 8
Protocol: CTB measurement values were obtained in the same manner as in the above-described <Evaluation of In Vitro Anticancer Activity> by adding each of compounds #09 and #13 at a final concentration of 20 μM to culture liquids of primary cultured fibroblasts (normal cells) and fibroblasts (cancer cells) immortalized with SV40. On the basis of the obtained CTB measurement values, the cell survival rate was calculated over time. Note that the cell survival rate was defined as 1-cell death induction rate. FIGS. 7 and 8 show the obtained results.

[6] = tested on: mouse tumor cell line 53T; assay: Evaluation of in vitro anticancer activity (Cell titer blue, cell death induction rate); assay type: cell-based; parameters: key: (CTB of negative control − CTB treated)/CTB of negative control; conditions: 24 hours, CTB
Protocol: First, the mouse tumor cell line 53T was seeded at 2×10^4/well on 96 well plates. Then, on the following day, each of compounds #09 and #13 dissolved in DMSO was added at a final concentration of 1, 5, 10, 20, or 50 μM. In addition, a negative control to which only DMSO was added was prepared. Subsequently, the cells were cultured at 37° C. under 10% CO2 for 24 hours. Then, by using Cell titer blue (CTB) (manufactured by Promega) according to the attached protocol, the amount of the fluorescence of each well of the cells 10 minutes after the addition of the CTB reagent was measured as a CTB measurement value of the cells brought into contact with compound #09 or #13. On the basis of such measurement values, the cell death induction rate of each of compounds #09 and #13 was calculated according to the following formula. Cell death induction rate=(CTB measurement value of negative control−CTB measurement value of cells to which compound was added)/CTB measurement value of negative control

[7] = tested on: tumor cell line 53T implanted in wild-type C57/B6J mice; assay: In vivo anticancer activity, tumor volume in cancer-bearing mice implanted with 53T; parameters: species or system mouse
Protocol: A tumor cell line (also referred to as “53T”) established from a tumor developed spontaneously in a p53 deficient C57/B6J mouse was implanted at 4 sites in the ventral skin of each of wild-type C57/B6J mice at 3×10^5 cells per site. From the following day, the compounds were administered to the mice every other day five times in total. The concentration of each compound was 0.4 μmol/(50 μl DMSO+100 μl PBS)/mouse/administration. In addition, a negative control group to which only the same amount of DMSO was administered was prepared. Then, 21 days (3 weeks) after the implantation, the tumor diameters of the mice were measured, and the tumor volumes were calculated, and compared with that of the control group.
The 53T was implanted at 4 sites in the ventral skin of each of wild-type C57/B6J mice at 3×10^5 cells per site. From the following day, 0 (DMSO alone), 5, 10, or 20 μM of each of compounds #09 and #13 was administered to six mice every other day five times in total. Then, 21 days (3 weeks) after the implantation, the tumor diameters of the mice were measured, and the tumor volumes were calculated. FIGS. 9 and 11 show the obtained results. Note that, in FIGS. 9 and 11, each point indicates the average volume of the tumors at the four sites in a mouse.
In addition, in the same manner as described above, the 53T was implanted in mice, and, from the following day, each of compound #09 at a concentration of 10 μM and compound #13 at a concentration of 5 μM was administered to four cancer-bearing mice every other day five times in total. Then, 21 days (3 weeks) after the implantation, the tumor diameters of the mice were measured, and the tumor volumes were calculated. In addition, a negative control to which DMSO was administered was also prepared, and the tumor volume was calculated in the same manner. In addition, these experiments were conducted three times independently of each other. FIGS. 10 and 12 show the obtained results. Note that in FIGS. 10 and 12, each point indicates the average volume of the tumors at the four sites in a mouse.

[8] = tested on: MEFs immortalized with SV40T antigen; conditions: 24 hours, CTB
Lamp1-GFP/ATG5-KO MEFs = assay: Evaluation of activity to induce alternative autophagy (fluorescent bright spots due to aggregation of Lamp1-GFP); assay type: cell-based, mouse
Protocol: First, by using a retrovirus, a gene for expression of a Lamp1-GFP fusion protein (also referred to as “Lamp1-GFP”) was introduced into ATG5-deficient mouse embryonic fibroblasts (also referred to as “ATG5-KO MEFs”). Then, a cell with high expression of Lamp1-GFP was cloned and prepared as Lamp1-GFP/ATG5-KO MEFs.
The ATG5-KO MEFs were prepared by introducing a gene for expression of SV40T antigen into MEFs established from an ATG5-deficient C57/B6J mouse at a fetal age of 14.5 days by an electroporation method using an Nucleofector system (manufactured by amaxa) for immortalization. In addition, the retrovirus was prepared by introducing an MSCV-Lamp1-GFP (zeocin resistant) vector into plat E cells, which were retrovirus packaging cells.
To the Lamp1-GFP/ATG5-KO MEFs seeded at 1×10^4/96 wells on the preceding day, each of the test compounds was added at a final concentration of 50 μM, and the Lamp1-GFP/ATG5-KO MEFs were cultured at 37° C. under 10% CO2 for 5 hours.
Then, for observation, Hoechst 33342 (manufactured by invitrogen) was added at a final concentration of 1 ng/ml to each culture liquid, followed by incubation for 5 minutes. Then, the culture liquid was replaced with 100 μl of HBSS. Subsequently, five visual fields per well were photographed at random with IN CELL ANALYZER 1000 (manufactured by GE Healthcare).
Then, the thus obtained novel benzothiophene compounds (TMD-459 and TMD-460) were evaluated for the ability to induce alternative autophagy by the same method as that described in Example 1. Note that, in Example 10, each of the compounds was added to culture liquids at final concentrations of 10, 20, 30, 40, and 50 μM. In addition, compound #9 was also added as a reference example to culture liquids at the above-described concentrations. Then, 5 hours after the addition of each of these compounds, five visual fields per each well were photographed at random with IN CELL ANALYZER 1000, and the presence or absence of fluorescent bright spots due to the aggregation of Lamp1-GFP was visually determined.

CCOC(=O)c1c(NC(C)=O)sc2c(OCCN(CC)CC)c(Br)ccc12 [Compound #09, Ethyl 2-Acetylamino-6-bromo-7-[2-(N,N-diethylamino)ethyloxy]benzo[b]thiophene-3-carboxylate]
improvement effect on the survival rate of the cancer-bearing mice [1]: higher improvement effect on the survival rate of the cancer-bearing mice than etoposide | mortality at 20 µM [2]: ≥ 80% | cell death-inducing activity on cancer cells (cell survival rate over time) [3]: exhibited remarkable cell death-inducing activity on the cancer cells | aggregation of Lamp2 and occurrence of autophagy [4]: aggregation of the lysosomal protein Lamp2 and occurrence of autophagy were observed | cell death of normal cells (cell survival rate over time) [5]: hardly induced cell death of the normal cells | Cell death induction rate ([6]; 1 μM): 0 | Cell death induction rate ([6]; 5 μM): 0.07741 | Cell death induction rate ([6]; 10 μM): 0.1725 | Cell death induction rate ([6]; 20 μM): 0.6305 | Cell death induction rate ([6]; 50 μM): 0.9456 | dose dependence of in vivo anticancer activity (FIG. 9) ([7]; 0, 5, 10, or 20 μM): dose-dependent activity | in vivo anticancer activity (tumor volume vs control group, FIG. 2) ([7]; 0.4 μmol/mouse/administration, every other day five times, 21 days after implantation): selected as compounds having in vivo anticancer activity | in vivo anticancer activity (tumor volume, FIGS. 9 to 12) ([7]; 5, 10, or 20 μM every other day five times, 21 days after implantation): exhibited in vivo anticancer activity | anticancer activity (FIG. 17, tumor volumes in cancer-bearing mice) ([7]; Example 9): had anticancer activity | Cell death induction rate ([8]; 10 μM): 0.7426 | Cell death induction rate ([8]; 20 μM): 0.887 | Cell death induction rate ([8]; 30 μM): 0.89 | Cell death induction rate ([8]; 40 μM): 0.8913 | Cell death induction rate ([8]; 50 μM): 0.8848 | alternative autophagy-inducing activity (FIG. 16) (Lamp1-GFP/ATG5-KO MEFs; Example 9, same method as Example 1): having alternative autophagy-inducing activity | aggregation of Lamp1-GFP, visually determined (Lamp1-GFP/ATG5-KO MEFs; concentrations of 10 μM or higher (10 to 50 μM), 5 hours): aggregation of the Lamp1-GFP was observed in all the cells
